Assay results reported in US10975119B2, “Selective cysteine protease inhibitors and uses thereof” (Genesis Technologies Limited, priority 2011, dated 2021).
Where a name gives a salt, the structure may show the parent alone. Read-outs that look alike come from different tables or passages of the source.

Tests used:
Assay type in all cases: biochemical
[1] = target: T1, Caspase-5 (Homo sapiens, UniProt P51878); test: Caspase-5 inhibitor screening assay (BioVision kit, WEHD-AFC); settings: for inhibition at 10 µM: read-out: % Inhibition at 10 uM Casp5; for inhibition at 100 µM: read-out: % Inhibition at 100 uM Casp5; for IC50: read-out: IC50 Casp5
T1 construct: mixing the compounds with the respective active caspases; purchased BioVision K155-100
T1 sequence (P51878 137-327 limits assumed): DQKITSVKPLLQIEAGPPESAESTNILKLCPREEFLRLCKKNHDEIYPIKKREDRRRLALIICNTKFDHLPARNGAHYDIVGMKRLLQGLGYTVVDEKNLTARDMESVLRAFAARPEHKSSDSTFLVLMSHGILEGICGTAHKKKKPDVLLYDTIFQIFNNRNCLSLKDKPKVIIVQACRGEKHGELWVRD
T1 sequence (P51878 347-434 limits assumed): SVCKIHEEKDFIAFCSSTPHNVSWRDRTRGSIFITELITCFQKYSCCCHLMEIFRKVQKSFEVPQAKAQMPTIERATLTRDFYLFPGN
Protocol: (§1) The efficacy of an array of compounds as an inhibitor of the activity of Caspases 1 through 10 were assessed by using the respective Caspase Inhibitor Drug Screening Kits (Caspase-1 Catalog #: K151-100, Caspase-2 Catalog #: K152-100, Caspase-3 Catalog #: K153-100, Caspase-4 Catalog #: K154-100, Caspase-5 Catalog #: K155-100, Caspase-6 Catalog #: K156-100, Caspase-7 Catalog #: K157-100, Caspase-8 Catalog #: K158-100, Caspase-9 Catalog #: K159-100, Caspase-10 Catalog #: K160-100, BioVision) following the instructions of the manufacturer. […] Active caspases cleaved their respective synthetic substrates to release free AFC, which was then quantified by fluorometry.
(§2) Briefly, the compounds were first tested at 2 concentrations (10 uM and 100 uM final) to determine if there is a hit. […] Each condition was tested in duplicates. […] For some samples, a smaller range of concentrations was tested depending on the % Inhibition results at 10 uM and 100 uM. Results were summarized in Tables 2, 3, and 4 herein after. Table 2 represents the IC50 values (uM) of the test compounds as inhibitors of the activity of the various caspases.
(§3) (*) RFU (no inhibitor control)—RFU (compound at a specific concentration)
(§4) RFU (no inhibitor control)

[2] = target: T2, Caspase-1 (Homo sapiens, UniProt P29466); test: Caspase-1 inhibitor screening assay (BioVision kit, YVAD-AFC); settings: for inhibition at 10 µM: read-out: % Inhibition at 10 uM Casp1; for inhibition at 100 µM: read-out: % Inhibition at 100 uM Casp1; for IC50: read-out: IC50 Casp1
T2 construct: mixing the compounds with the respective active caspases; purchased BioVision K151-100
T2 sequence (P29466 120-297 limits assumed): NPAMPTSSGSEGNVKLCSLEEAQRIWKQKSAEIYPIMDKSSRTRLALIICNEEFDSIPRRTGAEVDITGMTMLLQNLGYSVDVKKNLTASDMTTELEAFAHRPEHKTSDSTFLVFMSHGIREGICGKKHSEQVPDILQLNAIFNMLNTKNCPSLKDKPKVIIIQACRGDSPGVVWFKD
T2 sequence (P29466 317-404 limits assumed): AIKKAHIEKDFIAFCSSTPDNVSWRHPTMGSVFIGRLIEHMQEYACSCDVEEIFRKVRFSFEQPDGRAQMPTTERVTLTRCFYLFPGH
Protocol: as §1, §2, §3, §4

[3] = target: T3, Caspase-3 (Homo sapiens, UniProt P42574); test: Caspase-3 inhibitor screening assay (BioVision kit, DEVD-AFC); settings: for inhibition at 10 µM: read-out: % Inhibition at 10 uM Casp3; for inhibition at 100 µM: read-out: % Inhibition at 100 uM Casp3; for IC50: read-out: IC50 Casp3
T3 construct: mixing the compounds with the respective active caspases; purchased BioVision K153-100
T3 sequence (P42574 29-175 limits assumed): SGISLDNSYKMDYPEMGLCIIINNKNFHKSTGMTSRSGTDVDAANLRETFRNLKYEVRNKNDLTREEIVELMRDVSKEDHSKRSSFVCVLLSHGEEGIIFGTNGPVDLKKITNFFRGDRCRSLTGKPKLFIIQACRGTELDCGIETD
T3 sequence (P42574 176-277 limits assumed): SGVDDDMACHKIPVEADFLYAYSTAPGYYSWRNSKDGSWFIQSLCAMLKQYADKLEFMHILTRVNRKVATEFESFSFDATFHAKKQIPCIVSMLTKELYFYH
Protocol: as §1, §2, §3, §4

[4] = target: T4, Caspase-8 (Homo sapiens, UniProt Q14790); test: Caspase-8 inhibitor screening assay (BioVision kit, IETD-AFC); settings: for inhibition at 10 µM: read-out: % Inhibition at 10 uM Casp8; for inhibition at 100 µM: read-out: % Inhibition at 100 uM Casp8; for IC50: read-out: IC50 Casp8
T4 construct: mixing the compounds with the respective active caspases; purchased BioVision K158-100
T4 sequence (Q14790 217-374 limits assumed): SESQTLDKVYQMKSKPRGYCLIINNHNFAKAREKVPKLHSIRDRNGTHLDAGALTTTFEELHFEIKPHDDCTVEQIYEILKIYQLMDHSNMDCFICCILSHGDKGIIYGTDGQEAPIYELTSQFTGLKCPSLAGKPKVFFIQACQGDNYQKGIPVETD
T4 sequence (Q14790 385-479 limits assumed): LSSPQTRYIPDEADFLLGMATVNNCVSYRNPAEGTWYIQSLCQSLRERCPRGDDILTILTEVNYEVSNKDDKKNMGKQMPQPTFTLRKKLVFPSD
Protocol: as §1, §2, §3, §4

SMILES | inhibition at 10 µM [1] [%] | inhibition at 100 µM [1] [%] | IC50 [1] [µM] | inhibition at 10 µM [2] [%] | inhibition at 100 µM [2] [%] | IC50 [2] [µM] | inhibition at 10 µM [3] [%] | inhibition at 100 µM [3] [%] | IC50 [3] [µM] | inhibition at 10 µM ([4]; 10 uM) [%] | inhibition at 100 µM ([4]; 100 uM) [%] | IC50 [4] [µM] | change of potency against caspase-3 relative to compound 26 ([3]; replacement of t-Leu at P3 of compound 26) [fold] | % Inhibition at 100 uM Casp8 ([4]; 100 uM) [%] | inhibition at 10 µM [4] [%] | inhibition at 100 µM [4] [%]
CC(C)(C)[C@H](NC(=O)c1ccc2ncccc2n1)C(=O)N1CCCC1C(=O)N[C@H](/C=C/S(C)(=O)=O)CC(=O)O (stereo in doubt) [Compound 8, (1,5-Naphthyridine-2-carbonyl)-t-Leu-Pro-Asp methyl vinyl sulfone] | 65 | 97 | 5.9 | 91 | 100 | 0.88 | 3 | 5 | > 100 | 8 | 23 | > 100 | – | – | – | –
CC(C)(C)[C@H](NC(=O)c1ccc2ncccc2c1)C(=O)N1CCCC1C(=O)N[C@H](/C=C/S(C)(=O)=O)CC(=O)O (stereo in doubt) [Compound 10, Quinoline-6-carbonyl-t-Leu-Pro-Asp methyl vinyl sulfone] | 78 | 98 | 3 | 90 | 100 | 0.12 | 12 | 16 | > 100 | 34 | 94 | 14.7 | – | – | – | –
CS(=O)(=O)/C(Cl)=C/[C@@H](N)CC(=O)O [Compound 4, Asp achlorovinyl methyl vinyl sulfone, Tosyl Salt] | 0 | 1 | > 100 | 0 | 0 | > 100 | 4 | 7 | > 100 | – | – | > 100 | – | – | 6 | 13
CC(C)(C)OC(=O)CC[C@H](NC(=O)OC(C)(C)C)C(=O)N[C@H](/C=C/S(C)(=O)=O)CC(=O)OC(C)(C)C [Compound 21, Boc-Glu(O—tBu)-Asp (O—tBu)-methyl vinyl sulfone] | 3 | 7 | > 100 | 2 | 2 | > 100 | 0 | 4 | > 100 | 3 | 4 | > 100 | – | – | – | –
CS(=O)(=O)/C=C/[C@H](CC(=O)O)NC(=O)[C@H]1CCC(=O)N1 [Compound 24, (2-Pyrrolidinone-5-carbonyl)-Asp methyl vinyl sulfone] | 0 | 0 | > 100 | 3 | 10 | > 100 | 0 | 0 | > 100 | 0 | 0 | > 100 | – | – | – | –

Second part, led by results:

inhibition at 10 µM [1] [%] | inhibition at 100 µM [1] [%] | IC50 [1] [µM] | inhibition at 10 µM [2] [%] | inhibition at 100 µM [2] [%] | IC50 [2] [µM] | inhibition at 10 µM [3] [%] | inhibition at 100 µM [3] [%] | IC50 [3] [µM] | inhibition at 10 µM ([4]; 10 uM) [%] | inhibition at 100 µM ([4]; 100 uM) [%] | IC50 [4] [µM] | change of potency against caspase-3 relative to compound 26 ([3]; replacement of t-Leu at P3 of compound 26) [fold] | % Inhibition at 100 uM Casp8 ([4]; 100 uM) [%] | SMILES | inhibition at 10 µM [4] [%] | inhibition at 100 µM [4] [%]
14 | 69 | 46.2 | 49 | 90 | 10.6 | 91 | 99 | 0.78 | 20 | 80 | 27.6 | 7 | – | CS(=O)(=O)/C=C/[C@H](CC(=O)O)NC(=O)C1CCCN1C(=O)[C@@H](NC(=O)[C@H](CC(=O)O)NC(=O)OCc1ccccc1)C1CC1 (stereo in doubt) [Compound 28, Z-Asp-Cyclopropylglycine-Pro-Asp-methyl vinyl sulfone] | – | –
10 | 12 | > 100 | 0 | 5 | > 100 | 1 | 39 | > 100 | 2 | 49 | > 100 | – | 33 | CC(C)[C@H](NC(=O)OCc1ccccc1)C(=O)N[C@H](/C=C(\Cl)S(C)(=O)=O)CC(=O)O [Compound 2, Cbz-Val-Asp achlorovinyl methyl vinyl sulfone] | – | –
0 | 0 | > 100 | 18 | 26 | > 100 | 0 | 5 | > 100 | 0 | 23 | > 100 | – | – | CC(C)[C@H](NC(=O)OCc1ccccc1)C(=O)N[C@H](/C=C/S(C)(=O)=O)CC(=O)O [Compound 3, Z-Val-Asp methyl vinyl sulfone] | – | –
0 | 10 | > 100 | 0 | 0 | > 100 | 5 | 30 | > 100 | 5 | 14 | > 100 | – | – | CC(C)[C@H](NC(=O)c1ccc2ccccc2n1)C(=O)N[C@H](/C=C/S(C)(=O)=O)CC(=O)O [Compound 16, 2-Quinoline carbonyl-Val-Asp methyl vinyl sulfone] | – | –
0 | 1 | > 100 | 1 | 1 | > 100 | 4 | 2 | > 100 | 0 | 0 | > 100 | – | – | CS(=O)(=O)/C=C/[C@H](CC(=O)O)NC(=O)[C@H](CCC(=O)O)NC(=O)c1ccc2ccccc2n1 [Compound 18, 2-Quinoline carbonyl-Glu-Asp methyl vinyl sulfone] | – | –
55 | 96 | 8.39 | 81 | 99 | 1.4 | 1 | 5 | > 100 | 8 | 23 | > 100 | – | – | CC(C)(C)[C@H](NC(=O)c1ccc2ccccc2n1)C(=O)N1CC[C@@H]1C(=O)N[C@H](/C=C/S(C)(=O)=O)CC(=O)O [Compound 20, 2-Quinoline carbonyl-t-Leu-(Azetidine-2-carbonyl)-Asp methyl vinyl sulfone] | – | –
11 | 0 | > 100 | 0 | 0 | > 100 | 0 | 0 | > 100 | 3 | 7 | > 100 | – | – | CS(=O)(=O)/C=C/[C@H](CC(=O)O)NC(=O)[C@@H](N)CCC(=O)O [Compound 22, Glu-Asp methylsulfone] | – | –
